{"source": "patent US8623906B2", "about": "“Carboxy isatin hydrazones and their esters as Shp2 inhibitors” (H. Lee Moffitt Cancer Center and Research Institute, Inc., priority 2009, dated 2014)", "molecules": {"B1": {"name": "IFN-γ: interferon gamma used to stimulate HT-29 cells, alone or combined with SPI-112Me (protein, UniProt P01579 24-161, looked up)", "Interferon gamma": "QDPYVKEAENLKKYFNAGHSDVADNGTLFLGILKNWKEESDRKIMQSQIVSFYFKLFKNFKDDQSIQKSVETIKEDMNVKFFNSNKKKRDDFEKLTNYSVTDLNVQRKAIHELIQVMAELSPAAKTGKRKRSQMLFRG"}}, "key": {"[1]": {"tested_on": "GST-Shp2 PTP domain protein", "type": "biochemical", "experimental": "All reactions were monitored by thin layer chromatography (TLC) or ^1H NMR. Some products, which could not be purified by simply washing, were purified by Flashmaster chromatography. […] After the purity and structure were confirmed, samples were tested for IC50 by DiFMUP assay, seen in Table 1, appended.\nCurve fitting and IC50 were obtained using the GraphPad Prism program (GraphPad Software)."}, "[2]": {"tested_on": "Shp2^E76K in TF-1/Shp2^E76K cells", "type": "cell-based", "experimental": "(§1) To measure Shp2 PTP activity in immune complexes, cells were lysed in ice-cold PTP lysis buffer [25 mM Hepes, pH 7.4, 150 mM NaCl, 1 mM DTT, 2 mM EDTA, 0.5% Triton X-100, 1:50 diluted protease inhibitor cocktail (Roche, Basel, Switzerland)]. Cell lysate supernatants (0.2 mg/each) were incubated with an anti-Shp2 antibody (Santa Cruz Biotechnology, Santa Cruz, Calif.) or with an anti-Flag antibody M2 (Sigma-Aldrich, St. Louis, Mo.) plus protein G-Sepharose for 2 h at 4° C. Immunoprecipitates were washed twice with the PTP lysis buffer and twice with the Reaction Buffer A (25 mM Hepes, pH 7.4, 50 mM NaCl, 1 mM DTT, 0.05% Triton X-100). Each Shp2 immune complex was resuspended in 100 μl of reaction buffer containing 50 μM DiFMUP and incubated at room temperature for 20 min. After a brief centrifugation, supernatants were transferred into 96-well plates and the DiFMU fluorescence signal was measured. The remaining immune complex pellets were used for immunoblotting analysis of Shp2 protein."}, "[3]": {"tested_on": "Shp2 in MDA-MB-468 cells", "type": "cell-based", "experimental": "as §1"}, "[4]": {"tested_on": "HT-29 cells", "experiment": "Viable cell number (CellTiterGlo), 4 days, Bliss synergism", "details": "IFN-γ 100 U/ml alone", "method": "TF-1/Shp2^E76K and HT-29 Cells (1,000 cells/well in triplicate) were plated in 96-well plates in RPMI160/10% FBS plus test agent(s) in a total volume of 100 μl. […] After incubation for 4 days at 37° C./5% CO2, relative viable cell number was measured using the CelltiterGlo reagent (Promega) following the supplier's instruction.\nAssume X is the fraction of inhibition caused by the first agent, Y is the fraction of inhibition caused by the second agent, and Z is the fraction of inhibition caused by the combination of both agents,\nIf Z=X+Y−XY, then the effect of two agents is additive.\nIf Z>X+Y−XY, then the effect of two agents is synergistic.\nIf Z<X+Y−XY, then the effect of two agents is antagonistic."}, "[5]": {"tested_on": "pISRE-Luc in HT-29 cells", "experiment": "ISRE luciferase reporter assay", "type": "cell-based", "details": "50 U/ml IFN-γ alone, 6 h", "experimental": "Luciferase reporter assays were conducted using HT-29 cells (5×10^5 cells/each in 12-well plate) were co-transfected with 1.6 μg pISRE-Luc (Clontech, Mountain View, Calif.) and 0.4 μg β-gal plasmids with LipofectAMINE 2000 reagent. Eighteen hours after transfection, cells were incubated in fresh medium, pretreated with indicated concentrations of SPI-112Me or mocked treated for 2 h, and then stimulated with 50 U/ml IFN-γ for 6 h or left unstimulated. Luciferase and β-galactosidase activities were determined as described (Ren, et al., Shp2E76K mutant confers cytokine-independent survival of TF-1 myeloid cells by up-regulating Bcl-XL. J Biol Chem 2007; 282:36463-73). The luciferase activity was then normalized to β-galactosidase-galactosidase activity as an internal control for transfection efficiency."}}, "note": "Like-named read-outs stand apart in the source and are kept apart here.", "data": [{"molecule": "O=C(O)CCC(=O)N1CCc2cc(S(=O)(=O)N3CCN(c4ccc(C(=O)O)cc4)CC3)ccc21", "note": "[XW3-002]", "values": [{"measurement": "IC50", "setting": "[1]; Table 1, DiFMUP assay", "value": "6.1 ± 1.8", "unit": "µM"}]}, {"molecule": "COc1cccc(NC(=O)N2CCc3cc(S(=O)(=O)N4CCN(c5cccc(Cl)c5)CC4)ccc32)c1", "note": "[JHE-02-032B]", "values": [{"measurement": "IC50", "setting": "[1]", "value": 4.8, "unit": "µM"}]}, {"molecule": "O=C(Nc1cccc(Cl)c1)N1CCc2cc(S(=O)(=O)N3CCN(c4cccc(Cl)c4)CC3)ccc21", "note": "[JHE-02-032A]", "values": [{"measurement": "IC50", "setting": "[1]", "value": 8.3, "unit": "µM"}]}, {"molecule": "O=C(c1ccc(Cl)c(Cl)c1)N1CCc2cc(S(=O)(=O)N3CCN(c4cccc(Cl)c4)CC3)ccc21", "note": "[JF023]", "values": [{"measurement": "IC50", "setting": "[1]", "value": 7.1, "unit": "µM"}]}, {"molecule": "O=C(O)CCC(=O)N1CCc2cc(S(=O)(=O)N3CCN(c4ccc(F)cc4)CC3)ccc21", "note": "[XW2-011B]", "values": [{"measurement": "IC50", "setting": "[1]", "value": 47.8, "unit": "µM"}]}, {"molecule": "O=C1Nc2ccc(S(=O)(=O)NCc3ccc(F)cc3)cc2/C1=N/Nc1cccc(C(=O)O)c1", "note": "[SPI-112, (Z)-3-(2-(5-(N-(4-fluorobenzyl)sulfamoyl)-2-oxoindolin-3-ylidene)hydrazinyl)benzoic acid]", "values": [{"measurement": "IC50", "setting": "[1]", "value": 2.6, "unit": "µM"}, {"measurement": "effect on Shp2^E76K PTP activity in treated cells", "setting": "[2]", "value": "no decrease"}, {"measurement": "effect on EGF-stimulated Shp2 PTP activity", "setting": "[3]", "value": "did not affect"}]}, {"molecule": "COC(=O)c1cccc(N/N=C2\\C(=O)Nc3ccc(S(=O)(=O)NCc4ccc(F)cc4)cc32)c1", "note": "[SPI-112Me, (Z)-3-(2-(5-(N-(4-fluorobenzyl)sulfamoyl)-2-oxoindolin-3-ylidene) hydrazinyl)benzoic acid methyl ester]", "values": [{"measurement": "IC50", "setting": "[1]", "value": "> 100", "unit": "µM"}, {"measurement": "effect on Shp2^E76K PTP activity in treated cells", "setting": "[2]; GM-CSF-free medium", "value": "lower Shp2^E76K PTP activity"}, {"measurement": "reduction of EGF-stimulated Shp2 PTP activity", "setting": "[3]; 20 μM pretreatment, EGF 50 ng/ml, 10 min", "value": 77, "unit": "%"}]}, {"molecule": "O=C(O)/C=C/C(=O)N1CCc2cc(S(=O)(=O)N3CCN(c4cccc(Cl)c4)CC3)ccc21", "note": "[JHE-01-129A]", "values": [{"measurement": "IC50", "setting": "[1]", "value": 2.8, "unit": "µM"}]}, {"molecule": "Cc1cccc(N2CCN(S(=O)(=O)c3ccc4c(c3)CCN4C(=O)CCC(=O)O)CC2)c1", "note": "[XW2-057]", "values": [{"measurement": "IC50", "setting": "[1]; Table 1, DiFMUP assay", "value": "3.4 ± 2.3", "unit": "µM"}]}, {"molecule": "O=C(O)CCC(=O)N1CCCc2cc(S(=O)(=O)N3CCN(c4cccc(Cl)c4)CC3)ccc21", "note": "[JHE-02-023]", "values": [{"measurement": "IC50", "setting": "[1]; Table 1, DiFMUP assay", "value": "37.3 ± 5.3", "unit": "µM"}]}, {"molecule": "COc1cccc(C(=O)N2CCc3cc(S(=O)(=O)N4CCN(c5cccc(Cl)c5)CC4)ccc32)c1", "note": "[JHE-02-035A]", "values": [{"measurement": "IC50", "setting": "[1]", "value": 7.8, "unit": "µM"}]}, {"molecule": "B1", "values": [{"measurement": "fraction of inhibition", "setting": "[4]", "value": 0.18}, {"measurement": "activation of ISRE luciferase activity", "setting": "[5]", "value": 26, "unit": "%"}]}]}
